The text below walks through data of patent publication US4960815A, “Isotopically-labeled polycyclic amine derivatives” (Warner-Lambert Company, priority 1990, dated 1990).

The IC50 is the concentration that gives 50% inhibition. A higher IC50 goes with lower potency.

This experiment concerns the target PCP receptors. In words: Tritiated TCP binding, designated RBS1. The method, then:
Tritiated TCP binding, designated RBS1, was carried out essentially as described in J Pharmacol Exp Ther, 238, 739-748 (1986).

On to `c1csc(C2(N3CCCCC3)CCCCC2)c1` [TCP, 1-[1-(2-thienyl)cyclohexyl]piperidine], for which the 50% inhibitory concentration (IC50) turned out to be 9 nM.
